# Source: patent publication EP1247803A2, “Indolinone compounds suitable for modulation of protein kinases” (Sugen, Inc., priority 1996, dated 1998)
# How the values were obtained:
# PDGF-R = PDGF-R (Homo sapiens, UniProt P09619); assay: PDGF-R ELISA; format: cell-based
# Source text: A PDGF-R ELISA is described in International Patent Publication No. WO 96/40116, published December 19, 1996 by Tang et al.
# EGFR = molecular target: T1, EGFR (Homo sapiens, UniProt P00533); assay: EGFR ELISA assay (in vitro kinase activity, EGFR captured from A431 cell lysate); format: biochemical; parameters: concentration or dose not given beside the values
# T1 construct: Add 7 ug A431 cell lysate per well (EGFR source); endogenous in cells; host or cells: A431
# T1 sequence (P00533 25-1210): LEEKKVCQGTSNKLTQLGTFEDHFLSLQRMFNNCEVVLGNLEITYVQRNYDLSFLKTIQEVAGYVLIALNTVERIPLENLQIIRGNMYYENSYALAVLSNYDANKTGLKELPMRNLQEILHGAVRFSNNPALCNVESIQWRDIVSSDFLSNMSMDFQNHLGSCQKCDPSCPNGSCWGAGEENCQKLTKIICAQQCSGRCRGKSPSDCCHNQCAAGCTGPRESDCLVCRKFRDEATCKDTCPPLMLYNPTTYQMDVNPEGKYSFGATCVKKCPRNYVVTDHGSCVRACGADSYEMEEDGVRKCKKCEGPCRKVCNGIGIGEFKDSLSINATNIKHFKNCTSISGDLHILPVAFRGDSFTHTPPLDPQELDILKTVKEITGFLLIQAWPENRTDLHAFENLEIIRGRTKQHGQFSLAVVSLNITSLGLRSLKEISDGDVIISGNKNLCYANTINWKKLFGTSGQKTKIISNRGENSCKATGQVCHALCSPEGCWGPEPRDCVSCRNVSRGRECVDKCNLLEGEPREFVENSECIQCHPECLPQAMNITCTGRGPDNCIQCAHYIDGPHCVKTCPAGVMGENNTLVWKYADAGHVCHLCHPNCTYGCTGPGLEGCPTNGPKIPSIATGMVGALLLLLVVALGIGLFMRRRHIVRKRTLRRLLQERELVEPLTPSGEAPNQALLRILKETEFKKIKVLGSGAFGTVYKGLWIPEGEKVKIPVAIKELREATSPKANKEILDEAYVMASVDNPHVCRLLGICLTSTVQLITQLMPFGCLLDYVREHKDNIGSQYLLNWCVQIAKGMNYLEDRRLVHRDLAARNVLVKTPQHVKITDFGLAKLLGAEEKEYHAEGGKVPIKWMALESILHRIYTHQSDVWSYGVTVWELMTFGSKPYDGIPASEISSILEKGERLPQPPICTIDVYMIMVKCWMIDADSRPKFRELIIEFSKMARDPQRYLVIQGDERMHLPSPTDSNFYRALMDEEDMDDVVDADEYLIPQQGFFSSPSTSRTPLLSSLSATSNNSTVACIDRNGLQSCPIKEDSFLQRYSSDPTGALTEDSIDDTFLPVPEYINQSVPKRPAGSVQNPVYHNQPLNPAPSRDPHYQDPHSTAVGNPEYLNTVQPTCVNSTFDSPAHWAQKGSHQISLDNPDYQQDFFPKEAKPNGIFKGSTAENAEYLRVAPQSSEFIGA
# How it was run: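 EGFR from A431 lysate was captured on anti-EGFR antibody-coated plates and preincubated with compounds for 30 min. Autophosphorylation ran 5 min with 3 uM ATP and 5 mM MnCl2 (final), stopped with 20 mM EDTA. Phosphotyrosine was detected by anti-pTyr ELISA with ABTS/H2O2, read at 410 nm.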
# MET = MET biochemical kinase assay; parameters: species or system human; concentration or dose not given beside the values
# How it was run: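 Plates coated with anti-rabbit Fc bind a rabbit anti-MET antibody that captures receptor from cell lysates; unbound protein is washed off before compound and ATP-containing kinase buffer go in.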
# Chain of PDGF-R (P09619 33-1106, species assumed): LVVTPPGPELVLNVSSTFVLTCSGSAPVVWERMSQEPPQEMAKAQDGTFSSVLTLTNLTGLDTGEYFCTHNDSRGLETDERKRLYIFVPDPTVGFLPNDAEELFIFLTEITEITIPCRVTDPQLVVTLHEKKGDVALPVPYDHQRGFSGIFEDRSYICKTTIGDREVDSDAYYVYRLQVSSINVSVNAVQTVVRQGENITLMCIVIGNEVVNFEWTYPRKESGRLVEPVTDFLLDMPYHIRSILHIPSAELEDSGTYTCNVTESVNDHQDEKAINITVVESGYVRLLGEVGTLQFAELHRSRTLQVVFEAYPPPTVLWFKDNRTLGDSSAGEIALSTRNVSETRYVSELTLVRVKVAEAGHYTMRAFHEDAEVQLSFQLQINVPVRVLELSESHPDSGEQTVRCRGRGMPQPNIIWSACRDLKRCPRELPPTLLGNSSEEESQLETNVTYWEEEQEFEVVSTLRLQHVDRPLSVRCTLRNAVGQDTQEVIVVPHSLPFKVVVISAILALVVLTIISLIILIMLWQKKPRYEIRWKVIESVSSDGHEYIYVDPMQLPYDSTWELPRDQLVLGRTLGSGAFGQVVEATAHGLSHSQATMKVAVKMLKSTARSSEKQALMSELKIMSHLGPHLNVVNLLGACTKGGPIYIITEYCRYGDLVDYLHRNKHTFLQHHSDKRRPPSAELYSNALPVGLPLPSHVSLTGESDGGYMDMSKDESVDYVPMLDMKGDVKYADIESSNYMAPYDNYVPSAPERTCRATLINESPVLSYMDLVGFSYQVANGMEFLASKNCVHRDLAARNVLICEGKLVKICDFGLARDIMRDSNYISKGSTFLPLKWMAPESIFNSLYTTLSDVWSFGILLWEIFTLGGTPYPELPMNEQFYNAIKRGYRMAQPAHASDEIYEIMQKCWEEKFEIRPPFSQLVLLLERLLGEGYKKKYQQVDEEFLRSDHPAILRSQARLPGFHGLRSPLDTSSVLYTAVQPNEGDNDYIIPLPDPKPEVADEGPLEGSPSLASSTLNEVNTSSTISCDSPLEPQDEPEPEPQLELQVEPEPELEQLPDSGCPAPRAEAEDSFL
Structure (SMILES),PDGF Kinase %Inhibition (PDGF-R),Biochem EGFR %Inhibition (EGFR),Met Kinase % Inhibition (MET)
O=C1Nc2ccc(CCCl)cc2C1=Cc1csc([N+](=O)[O-])c1 [10722/G09],0.9%,-5.9%,51.0%
O=C1Nc2ccc(S(=O)(=O)Nc3ccc(C(F)(F)F)cc3)cc2C1=Cc1cccs1 [10717/E03],–,11.7%,52.2%
O=C1Nc2ccc(CCCl)cc2C1=Cc1ccc(F)cc1F [10722/G06],-6.0%,-5.2%,12.2%
CC(C)(C)c1cc(C=C2C(=O)Nc3ccc(CCCl)cc32)cc([N+](=O)[O-])c1O [10722/G02],14.6%,27.3%,43.0%
Cc1cc(C=C2C(=O)Nc3ccc(CCCl)cc32)ccc1O [10723/G06],-0.8%,-26.7%,64.5%
CC(C)(C)c1cc(C=C2C(=O)Nc3ccc(CCCl)cc32)cc(Cl)c1O [10722/G08],12.9%,-8.5%,66.1%
O=C1Nc2ccc(S(=O)(=O)N3CCOCC3)cc2C1=Cc1ccc(O)c(O)c1O [10723/F02],1.3%,70.4%,99.0%
Cc1c(Br)ccc2c1C(=Cc1cccc(Br)c1)C(=O)N2 [10723/C10],25.6%,-7.2%,43.8%
CC(C)(C)c1cc(C=C2C(=O)Nc3ccc(I)cc32)c(O)c(C(C)(C)C)c1 [10723/B11],22.8%,-26.0%,62.6%
Cc1cc(C=C2C(=O)Nc3ccc(CCCl)cc32)cc(C)c1O [10722/G07],-3.7%,-32.5%,41.2%
Cc1cc(C=C2C(=O)Nc3ccc(I)cc32)ccc1O [10723/B06],58.8%,11.9%,90.6%
Cc1cc(C=C2C(=O)Nc3c(Br)cc(Br)cc32)ccc1O [10723/A06],43.6%,20.1%,79.1%
O=C1Nc2ccc(S(=O)(=O)N3CCOCC3)cc2C1=Cc1cc(O)c(O)c(Br)c1 [10723/F04],21.4%,17.5%,94.0%
O=C1Nc2c(Br)cc(Br)cc2C1=Cc1ccc(O)c(O)c1O [10723/A02],64.4%,97.8%,100.8%
Cc1c(Br)ccc2c1C(=Cc1ccc(O)c(O)c1O)C(=O)N2 [10723/C02],39.4%,73.6%,100.6%
O=C1Nc2c(Br)cc(Br)cc2C1=Cc1cccc(Br)c1 [10723/A10],34.6%,-24.8%,62.1%
O=C1Nc2ccc(S(=O)(=O)Nc3ccc(C(F)(F)F)cc3)cc2C1=Cc1cc(O)c(O)c(Br)c1 [10723/E04],36.0%,59.8%,94.5%
O=C1Nc2ccc(CCCl)cc2C1=Cc1ccc(C(F)(F)F)cc1 [10722/G11],0.3%,-39.4%,35.3%
Cc1c(Br)ccc2c1C(=Cc1ccc(O)cc1O)C(=O)N2 [10723/C08],29.0%,45.0%,83.0%

Structure (SMILES),PDGF Kinase %Inhibition (PDGF-R),Biochem EGFR %Inhibition (EGFR),Met Kinase % Inhibition (MET)
COc1cccc(C=C2C(=O)Nc3ccc(I)cc32)c1O [10723/B03],14.5%,-5.0%,82.5%
O=C1Nc2c(Br)cc(Br)cc2C1=Cc1cc(O)c(O)c(Br)c1 [10723/A04],13.1%,30.8%,97.9%
Cc1cc(C=C2C(=O)Nc3ccc(S(=O)(=O)Nc4ccc(C(F)(F)F)cc4)cc32)ccc1O [10723/E06],18.6%,11.5%,74.4%
O=C1Nc2ccc(CCCl)cc2C1=Cc1ccc(O)cc1O [10723/G08],7.5%,0.1%,79.9%
COc1cccc(C=C2C(=O)Nc3ccc(Br)c(C)c32)c1O [10723/C03],42.9%,5.9%,88.8%
CNS(=O)(=O)c1ccc2c(c1)C(=Cc1cc(O)c(O)c(Br)c1)C(=O)N2 [10723/D04],31.8%,45.1%,97.7%
CNS(=O)(=O)c1ccc2c(c1)C(=Cc1ccccc1Br)C(=O)N2 [10723/D07],16.6%,13.4%,21.9%
COc1ccc(C=C2C(=O)Nc3c(Br)cc(Br)cc32)c(O)c1 [10723/A09],42.9%,-4.5%,85.9%
COc1cccc(C=C2C(=O)Nc3ccc(S(=O)(=O)Nc4ccc(C(F)(F)F)cc4)cc32)c1O [10723/E03],47.1%,8.3%,76.8%
O=C1Nc2ccc(S(=O)(=O)Nc3ccc(C(F)(F)F)cc3)cc2C1=Cc1c[nH]c2ccccc12 [10717/E06],–,-26.1%,24.8%
CC(=O)Oc1ccc(C=C2C(=O)Nc3ccc(Br)c(C)c32)cc1OC(C)=O [10723/C05],22.8%,35.2%,73.1%
O=C1Nc2ccc(S(=O)(=O)Nc3ccc(C(F)(F)F)cc3)cc2C1=Cc1ccc(O)c(O)c1O [10723/E02],46.4%,91.0%,97.9%
O=C1Nc2ccc(I)cc2C1=Cc1ccc(O)c(O)c1O [10723/B02],29.0%,91.0%,100.3%
O=C1Nc2ccc(S(=O)(=O)Nc3ccc(C(F)(F)F)cc3)cc2C1=Cc1ccc(Br)cc1 [10717/E08],–,28.2%,51.7%
O=C1Nc2ccc(S(=O)(=O)Nc3ccc(C(F)(F)F)cc3)cc2C1=Cc1ccc(F)cc1 [10717/E05],–,22.4%,39.1%
Cn1cccc1C=C1C(=O)Nc2ccc(S(=O)(=O)Nc3ccc(C(F)(F)F)cc3)cc21 [10717/E04],–,-28.3%,29.4%
CNS(=O)(=O)c1ccc2c(c1)C(=Cc1[nH]c(C)c(Br)c1Br)C(=O)N2 [10717/D11],–,59.1%,55.3%
CCOc1ccccc1C=C1C(=O)Nc2ccc(S(=O)(=O)Nc3ccc(C(F)(F)F)cc3)cc21 [10717/E02],–,17.2%,24.0%
Cc1ccc(C=C2C(=O)Nc3ccc(S(=O)(=O)Nc4ccc(C(F)(F)F)cc4)cc32)s1 [10717/E07],–,-7.8%,41.0%
